Assay results as given in PubChem BioAssay (NCI).
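Exposure lasted 48 hours, with cells grown in 96-well plates and compounds tested at five concentrations. GI50 marks 50% less growth. Definition used: TGI = concentration required for complete inhibition of growth.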

Tests used:
Assay in all cases: NCI tumour cell line growth inhibition, 48 h
[1] = system: CAKI-1 renal
[2] = system: HCT-116 colon
[3] = system: MDA-MB-231 breast
[4] = system: NCI-H23 lung
[5] = system: NCI-H460 lung
[6] = system: MALME-3M melanoma
[7] = system: BT-549 breast
[8] = system: HCT-15 colon
[9] = system: IGROV1 ovarian
[10] = system: TK-10 renal
[11] = system: EKVX NSCLC
[12] = system: LOX IMVI melanoma
[13] = system: SW-620 colon
[14] = system: CCRF-CEM leukemia
[15] = system: SF-268 CNS
[16] = system: NCI-H226 lung
[17] = system: COLO 205 colon
[18] = system: OVCAR-5 ovarian
[19] = system: HS 578T breast
[20] = system: DU-145 prostate
[21] = system: OVCAR-3 ovarian
[22] = system: UACC-257 melanoma
[23] = system: KM12 colon
[24] = system: MOLT-4 leukemia
[25] = system: SF-295 CNS
[26] = system: PC-3 prostate
[27] = system: OVCAR-4 ovarian
[28] = system: SN12C renal
[29] = system: HL-60(TB) leukemia
[30] = system: SK-MEL-28 melanoma
[31] = system: MCF7 breast
[32] = system: SK-MEL-2 melanoma
[33] = system: OVCAR-8 ovarian
[34] = system: K-562 leukemia
[35] = system: NCI-H522 lung
[36] = system: UACC-62 melanoma
[37] = system: SNB-19 CNS
[38] = system: HT29 colon
[39] = system: RPMI-8226 leukemia
[40] = system: SK-MEL-5 melanoma
[41] = system: T-47D breast
[42] = system: UO-31 renal
[43] = system: MDA-MB-435
[44] = system: U251 CNS
[45] = system: NCI/ADR-RES ovarian
[46] = system: HOP-62 NSCLC
[47] = system: A549 NSCLC
[48] = system: M14 melanoma
[49] = system: 786-0 renal
[50] = system: HOP-92 NSCLC
[51] = system: ACHN renal
[52] = system: RXF 393 renal
[53] = system: A498 renal
[54] = system: SNB-75 CNS
[55] = system: HCC-2998 colon
[56] = system: SK-OV-3 ovarian
[57] = system: SF-539 CNS

CC(C)=NN/C(=N\S(=O)(=O)c1cc2ccccc2s1)Nc1ccc(Cl)cc1
TGI [1]: > 100 µM
TGI [2]: > 100 µM
TGI [3]: > 100 µM
TGI [4]: > 100 µM
TGI [5]: > 100 µM
TGI [6]: > 100 µM
TGI [7]: > 100 µM
TGI [8]: > 100 µM
TGI [9]: > 100 µM
TGI [10]: > 100 µM
TGI [11]: 60.2 µM
TGI [12]: > 100 µM
TGI [13]: > 100 µM
TGI [14]: > 100 µM
TGI [15]: > 100 µM
TGI [16]: > 100 µM
TGI [17]: > 100 µM
TGI [18]: > 100 µM
TGI [19]: > 100 µM
TGI [20]: > 100 µM
TGI [21]: > 100 µM
TGI [22]: > 100 µM
TGI [23]: > 100 µM
TGI [24]: > 100 µM
TGI [25]: > 100 µM
TGI [26]: > 100 µM
TGI [27]: > 100 µM
TGI [28]: > 100 µM
TGI [29]: > 100 µM
TGI [30]: > 100 µM
TGI [31]: > 100 µM
TGI [32]: > 100 µM
TGI [33]: > 100 µM
TGI [34]: > 100 µM
TGI [35]: > 100 µM
TGI [36]: > 100 µM
TGI [37]: > 100 µM
TGI [38]: > 100 µM
TGI [39]: > 100 µM
TGI [40]: > 100 µM
TGI [41]: 76.3 µM
TGI [42]: > 100 µM
TGI [43]: > 100 µM
TGI [44]: > 100 µM
TGI [45]: > 100 µM
TGI [46]: > 100 µM
TGI [47]: > 100 µM
TGI [48]: > 100 µM
TGI [49]: > 100 µM
TGI [50]: > 100 µM

O=C(O)[C@@H]1CCCN1Cc1cc2cc3c(cc2c2cc(OCc4ccccc4)ccc12)OCO3
GI50 [1]: 20.3 µM
TGI [1]: 53.6 µM
GI50 [2]: 37.6 µM
TGI [2]: > 100 µM
GI50 [3]: 15 µM
TGI [3]: 42.6 µM
GI50 [4]: 38.4 µM
TGI [4]: > 100 µM
GI50 [5]: 17.8 µM
TGI [5]: 44.6 µM
GI50 [6]: 25.8 µM
TGI [6]: 60.1 µM
GI50 [7]: 22.6 µM
TGI [7]: 52.9 µM
GI50 [8]: 28.5 µM
TGI [8]: > 100 µM
GI50 [9]: 24.1 µM
TGI [9]: 62.6 µM
GI50 [51]: 26.1 µM
TGI [51]: 86.6 µM
GI50 [10]: 27.8 µM
TGI [10]: 77.7 µM
GI50 [52]: 20.6 µM
TGI [52]: 42.6 µM
GI50 [11]: 21.8 µM
TGI [11]: 61.7 µM
GI50 [12]: 17.1 µM
TGI [12]: 31.7 µM
GI50 [13]: 14.1 µM
TGI [13]: 54.6 µM
GI50 [14]: 23.2 µM
TGI [14]: > 100 µM
GI50 [15]: 24.4 µM
TGI [15]: 55.9 µM
GI50 [16]: 21.8 µM
TGI [16]: 50.5 µM
GI50 [17]: 14.7 µM
TGI [17]: 30.6 µM
GI50 [18]: 21.4 µM
TGI [18]: 54.9 µM
GI50 [19]: 17.6 µM
TGI [19]: 49.2 µM
GI50 [20]: 19.4 µM
TGI [20]: 65.9 µM
GI50 [53]: 13.5 µM
TGI [53]: 45.3 µM
GI50 [21]: 17.5 µM
TGI [21]: 43.6 µM
GI50 [22]: 28.9 µM
TGI [22]: 71.8 µM
GI50 [23]: 31.8 µM
TGI [23]: > 100 µM
GI50 [24]: 30.7 µM
TGI [24]: > 100 µM
GI50 [25]: 18.3 µM
TGI [25]: 45 µM
GI50 [26]: 29.8 µM
TGI [26]: > 100 µM
GI50 [28]: 23.1 µM
TGI [28]: 72.7 µM
GI50 [30]: 19.4 µM
TGI [30]: 43.9 µM
GI50 [54]: 21.1 µM
TGI [54]: 52.4 µM
GI50 [31]: 17.2 µM
TGI [31]: 43.9 µM
GI50 [32]: 20.1 µM
TGI [32]: 45.5 µM
GI50 [33]: 30.8 µM
TGI [33]: > 100 µM
GI50 [34]: 28.7 µM
TGI [34]: > 100 µM
GI50 [35]: 23.7 µM
TGI [35]: 58.3 µM
GI50 [36]: 16.8 µM
TGI [36]: 33.2 µM
GI50 [37]: 18.5 µM
TGI [37]: 48.3 µM
GI50 [38]: 18 µM
TGI [38]: 37.2 µM
GI50 [39]: 17 µM
TGI [39]: 60.9 µM
GI50 [40]: 14.7 µM
TGI [40]: 31.6 µM
GI50 [55]: 36.4 µM
TGI [55]: > 100 µM
GI50 [41]: 19.2 µM
TGI [41]: 54 µM
GI50 [42]: 24.3 µM
TGI [42]: > 100 µM
GI50 [56]: 32.4 µM
TGI [56]: 81.3 µM
GI50 [43]: 23.4 µM
TGI [43]: 58.4 µM
GI50 [44]: 30.1 µM
TGI [44]: > 100 µM
GI50 [57]: 25.1 µM
TGI [57]: 60.1 µM
GI50 [45]: 43.9 µM
TGI [45]: > 100 µM
GI50 [46]: 51.2 µM
TGI [46]: > 100 µM
GI50 [47]: 27.1 µM
TGI [47]: > 100 µM
GI50 [48]: 46.1 µM
TGI [48]: > 100 µM
GI50 [49]: 55 µM
TGI [49]: > 100 µM
GI50 [50]: 21.9 µM
TGI [50]: 63.3 µM

N#Cc1ccccc1C#C/C=C\C#Cc1cccs1
GI50 [1]: 16 µM
TGI [1]: 78 µM
GI50 [2]: 11.7 µM
TGI [2]: 46 µM
GI50 [3]: 26.1 µM
TGI [3]: > 100 µM
GI50 [4]: 33.2 µM
TGI [4]: > 100 µM
GI50 [5]: 21.9 µM
TGI [5]: 75.8 µM
GI50 [6]: 19.5 µM
TGI [6]: 48.1 µM
GI50 [7]: 12.2 µM
TGI [7]: 94.8 µM
GI50 [8]: 14.5 µM
TGI [8]: 83.1 µM
GI50 [9]: 42.7 µM
TGI [9]: > 100 µM
GI50 [51]: 32 µM
TGI [51]: > 100 µM
GI50 [10]: 20.7 µM
TGI [10]: 62.5 µM
GI50 [52]: 14.9 µM
TGI [52]: 48.1 µM
GI50 [11]: 24.8 µM
TGI [11]: > 100 µM
GI50 [12]: 15.7 µM
TGI [12]: 92.4 µM
GI50 [13]: 7.78 µM
TGI [13]: > 100 µM
GI50 [15]: 19.1 µM
TGI [15]: 55.7 µM
GI50 [16]: 47 µM
TGI [16]: > 100 µM
GI50 [17]: 14.3 µM
TGI [17]: 32.2 µM
GI50 [18]: 70.7 µM
TGI [18]: > 100 µM
GI50 [19]: 8.03 µM
TGI [19]: 53.7 µM
GI50 [20]: 19.7 µM
TGI [20]: 77.3 µM
GI50 [53]: 18.5 µM
TGI [53]: 54.3 µM
GI50 [21]: 14.1 µM
TGI [21]: 34.2 µM
GI50 [22]: 32.5 µM
TGI [22]: > 100 µM
GI50 [23]: 3.93 µM
TGI [23]: 16.8 µM
GI50 [24]: 8.19 µM
TGI [24]: > 100 µM
GI50 [25]: 13.8 µM
TGI [25]: 31.9 µM
GI50 [26]: 28.6 µM
TGI [26]: > 100 µM
GI50 [27]: 34.9 µM
TGI [27]: > 100 µM
GI50 [28]: 33 µM
TGI [28]: > 100 µM
GI50 [30]: 14.8 µM
TGI [30]: > 100 µM
GI50 [54]: 26.2 µM
TGI [54]: > 100 µM
GI50 [31]: 6.07 µM
TGI [31]: 45.9 µM
GI50 [32]: 62.8 µM
TGI [32]: > 100 µM
GI50 [33]: 30.3 µM
TGI [33]: > 100 µM
GI50 [34]: 6.46 µM
TGI [34]: > 100 µM
GI50 [35]: 36.8 µM
TGI [35]: > 100 µM
GI50 [36]: 12.3 µM
TGI [36]: > 100 µM
GI50 [37]: 45.8 µM
TGI [37]: > 100 µM
GI50 [38]: 11.8 µM
TGI [38]: > 100 µM
GI50 [39]: 11.1 µM
TGI [39]: 51.2 µM
GI50 [40]: 14.5 µM
TGI [40]: 39 µM
GI50 [55]: 28.3 µM
TGI [55]: > 100 µM
GI50 [41]: 12.6 µM
TGI [41]: > 100 µM
GI50 [42]: 46.5 µM
TGI [42]: > 100 µM
GI50 [56]: 28.9 µM
TGI [56]: > 100 µM
GI50 [43]: 2.11 µM
TGI [43]: 4.35 µM
GI50 [44]: 16.4 µM
TGI [44]: 67.1 µM
GI50 [57]: 14.4 µM
TGI [57]: 34.1 µM
GI50 [45]: 25.4 µM
TGI [45]: > 100 µM
GI50 [46]: 16.5 µM
TGI [46]: 61.4 µM
GI50 [47]: 25 µM
TGI [47]: > 100 µM
GI50 [48]: 11.4 µM
TGI [48]: 56.5 µM
GI50 [49]: 29.4 µM
TGI [49]: 84.1 µM
GI50 [50]: 25.8 µM
TGI [50]: > 100 µM
